According to ChEMBL document CHEMBL5634110, “Applications of oxetanes in drug discovery and medicinal chemistry” (Eur J Med Chem, 2023):
Values after ≈ are worked out from the molar mass of the structure shown.

Key:
[1] = biological target: Apoptosis regulator Bcl-2 (Homo sapiens, UniProt P10415); assay: Inhibition of Bcl-2 (unknown origin) by fluorescence polarization assay
[2] = Inhibition of GST fused Bcl-xL (unknown origin) incubated for 5 min by TR-FRET assay; set-up: species or system Homo sapiens
[3] = Apparent permeability of compound in phosphate buffer by PAMPA assay; assay type: ADME
[4] = AUC (0 to 24 hrs) in rat at 5 mg/kg, po; assay type: ADME, organism-based; conditions: in vivo
[5] = Tmax in rat at 5 mg/kg, po; assay type: ADME, organism-based; conditions: in vivo
Human orthopneumovirus = assay: Antiviral activity against RSV type B assessed as viral growth inhibition; assay type: functional, organism-based; conditions: human respiratory syncytial virus
[6] = Metabolic stability in human liver microsomes assessed as half life at 1 uM incubated for 60 mins by LC-MS/MS analysis; assay type: ADME, Microsome
Collagenase 3 = Collagenase 3 (Homo sapiens, UniProt P45452); assay: Binding affinity to full length human recombinant MMP-13 using Mca-PLGL-Dpa-AR-NH2 as fluorogenic peptide substrate assessed as inhibition constant
[7] = Kinetic solubility of compound in PBS buffer at 500 uM incubated for 18 hrs by HPLC analysis; assay type: physicochemical; conditions: read-out: Kinetic_solubility
[8] = Metabolic stability in rat liver microsomes assessed as half life at 1 uM incubated for 60 mins by LC-MS/MS analysis; assay type: ADME, Microsome
[9] = Metabolic stability in mouse liver microsomes assessed as half life at 1 uM incubated for 60 mins by LC-MS/MS analysis; assay type: ADME, Microsome
Z-138 = assay: Growth inhibition of human Z138 cells; assay type: functional
[10] = biological target: T1, Developmentally-regulated GTP-binding protein 1 (Homo sapiens, UniProt Q9Y295); assay: Inhibition of DRG1 (unknown origin)
T1 sequence (Q9Y295 whole entry): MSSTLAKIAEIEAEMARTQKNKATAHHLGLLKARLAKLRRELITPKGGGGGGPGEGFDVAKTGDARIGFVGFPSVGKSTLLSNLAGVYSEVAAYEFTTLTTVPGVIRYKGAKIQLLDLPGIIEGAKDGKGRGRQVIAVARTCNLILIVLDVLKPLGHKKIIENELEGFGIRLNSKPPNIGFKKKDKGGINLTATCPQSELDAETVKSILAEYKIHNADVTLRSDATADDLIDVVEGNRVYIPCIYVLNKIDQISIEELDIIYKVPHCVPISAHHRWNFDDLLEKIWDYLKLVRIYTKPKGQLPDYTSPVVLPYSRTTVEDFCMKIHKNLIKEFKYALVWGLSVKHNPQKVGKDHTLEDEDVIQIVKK

[11] = Intrinsic clearance in human liver microsomes; assay type: ADME, Microsome; conditions: read-out: CLH
[12] = Solubility of compound at pH 6.8; assay type: physicochemical; conditions: buffer
[13] = Intrinsic clearance in mouse liver microsomes; assay type: ADME, Microsome; conditions: read-out: CLH
[14] = Oral bioavailability in rat; assay type: ADME, organism-based; conditions: in vivo
[15] = AUC in iv dosed rat; assay type: ADME, organism-based; conditions: in vivo
[16] = Solubility of compound in PBS at pH 7.4; assay type: physicochemical
[17] = Half life in iv dosed rat; assay type: ADME, organism-based; conditions: in vivo
[18] = Intrinsic clearance in rat liver microsomes; assay type: ADME, Microsome
[19] = biological target: Hepatitis C virus NS5B RNA-dependent RNA polymerase (Hepatitis C virus, UniProt Q8JXU8); assay: Inhibition of Hepatitis C virus NS5B polymerase; set-up: species or system Hepacivirus hominis
Sequence of Hepatitis C virus NS5B RNA-dependent RNA polymerase (Q8JXU8 whole entry): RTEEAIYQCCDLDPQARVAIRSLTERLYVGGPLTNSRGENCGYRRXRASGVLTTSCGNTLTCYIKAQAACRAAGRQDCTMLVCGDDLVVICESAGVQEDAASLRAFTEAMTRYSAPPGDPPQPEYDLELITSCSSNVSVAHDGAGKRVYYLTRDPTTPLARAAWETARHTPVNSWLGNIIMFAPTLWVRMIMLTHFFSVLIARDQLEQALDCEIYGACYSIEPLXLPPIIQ

[20] = Oral bioavailability in rat at 2 mg/kg; assay type: ADME, organism-based; conditions: in vivo
[21] = Oral bioavailability in monkey at 5 mg/kg; assay type: ADME, organism-based, Macaca mulatta; conditions: rhesus monkey, in vivo

Sequence of Apoptosis regulator Bcl-2 (P10415 whole entry, the tested form may be a part): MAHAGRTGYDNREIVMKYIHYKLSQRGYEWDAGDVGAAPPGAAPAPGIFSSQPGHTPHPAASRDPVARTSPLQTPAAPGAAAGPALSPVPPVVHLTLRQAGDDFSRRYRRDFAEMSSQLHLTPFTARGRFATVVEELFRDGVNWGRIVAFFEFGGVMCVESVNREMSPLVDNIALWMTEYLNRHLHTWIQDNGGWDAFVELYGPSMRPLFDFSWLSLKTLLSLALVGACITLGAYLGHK

Compound: CC1(C)CCC(c2ccc(Cl)cc2)=C(CN2CCN(c3ccc(C(=O)NS(=O)(=O)c4ccc(OCC5(CN6CC(F)(F)C6)COC5)c(S(=O)(=O)C(F)(F)F)c4)cc3)CC2)C1
- IC50 [1]: 17.3 nM
- IC50 [2]: 105 nM

Compound: COC(C)(C)C#Cc1cnc2c(c1)[C@]1(COC(N)=N1)c1cc(-c3cccnc3F)ccc1O2
- Papp [3]: 12 ×10⁻⁶ cm/s

Compound: CO[C@H]1C[C@@H](C)C/C(C)=C/[C@@H](C/C=C/C2(O)COC2)C(=O)C[C@H](O)[C@@H](C)[C@@H](/C(C)=C/[C@@H]2CC[C@@H](O)[C@H](OC)C2)OC(=O)[C@@H]2CCCCN2C(=O)C(=O)[C@]2(O)O[C@H]1[C@@H](OC)C[C@H]2C
- AUC(0-t) [4]: 49100 ng·h/mL
- Tmax [5]: 1 h

Compound: O=C(NC1CC1)c1cc2c(s1)-c1ccccc1N(C(=O)c1ccc(NC(=O)c3cccnc3N3CCC4(CC3)COC4)cc1)CC2
- EC50 (Human orthopneumovirus): > 100000 nM

Compound: CC(C)[C@H](NC(=O)c1ccc(-c2ccc(CNc3nc4c(c(=O)[nH]3)CCC4)c(F)c2)o1)C(=O)NC1COC1
- half-life at 1 µM [6]: 1.1 h
- Ki (Collagenase 3): 10.3 nM
- solubility kinetic at 18 h, 500 µM [7]: 32.7 µM (≈ 17.1 µg/mL)
- half-life at 1 µM [8]: 1.67 h
- half-life at 1 µM [9]: 1.58 h
- GI50 (Z-138): 20 nM

Compound: CC(=O)N1CCC(c2cc(Nc3cc(C#N)ccn3)nc(N3CCC(F)(F)C3)c2)CC1
- IC50 [10]: 180 nM

Compound: CC1(C)CCC(c2ccc(Cl)cc2)=C(CN2CCN(c3ccc(C(=O)NS(=O)(=O)c4ccc(N[C@H](CCN5CCOCC5)CSc5ccccc5)c(S(=O)(=O)C(F)(F)F)c4)cc3)CC2)C1 [NAVITOCLAX]
- IC50 [2]: 8.2 nM

Compound: CC(C)[C@H](NC(=O)c1ccc(-c2ccc(CCc3nc4c(c(=O)[nH]3)CCC4)c(F)c2)o1)C(=O)NC1COC1
- half-life at 1 µM [6]: 1.02 h
- Ki (Collagenase 3): 12.2 nM
- solubility kinetic at 18 h, 500 µM [7]: 76.4 µM (≈ 39.9 µg/mL)
- half-life at 1 µM [8]: 1.03 h
- half-life at 1 µM [9]: 1.73 h

Compound: COc1cc(C#N)ccc1COc1cccc(N2C=NN(Cc3nc4c(F)cc(C(=O)O)cc4n3C[C@@H]3CCO3)CC2)n1
- microsomal CLint [11]: 6 µL/min/mg

Compound: C=CC[C@@H]1/C=C(\C)C[C@H](C)C[C@H](OC)[C@H]2O[C@@](O)(C(=O)C(=O)N3CCCC[C@H]3C(=O)O[C@H](/C(C)=C/[C@@H]3CC[C@@H](O)[C@H](OC)C3)[C@H](C)[C@@H](O)CC1=O)[C@H](C)C[C@@H]2OC [TACROLIMUS ANHYDROUS]
- AUC(0-t) [4]: 2490 ng·h/mL
- solubility [12]: 28 µM (≈ 22.5 µg/mL)
- Tmax [5]: 1 h
- microsomal CLint [13]: 306 µL/min/mg

Compound: COC(=O)Nc1nc2cc(C(=O)c3ccc(N(C)C4COC4)cc3)ccc2[nH]1
- bioavailability [14]: 73.1%
- AUC [15]: 469 ng·h/mL
- solubility [16]: 137 µg/mL (≈ 360 µM)
- half-life [17]: 5.5 h

Compound: COc1cc(C(F)(F)F)ccc1COc1cccc(N2C=NN(Cc3nc4c(F)cc(C(=O)O)cc4n3C[C@@H]3CCO3)CC2)n1
- CLH [18]: 12 µL/min/mg
- microsomal CLint [11]: 12 µL/min/mg

Compound: Nc1nc2c(ncn2[C@@H]2O[C@H](COP(=O)(O)OP(=O)(O)OP(=O)(O)O)[C@@H](O)[C@@]23CCO3)c(=O)[nH]1
- IC50 [19]: 10000 nM

Compound: CC(C)(O)C#Cc1cnc2c(c1)[C@]1(COC(N)=N1)c1cc(-c3cccnc3F)ccc1O2
- bioavailability [20]: 70%
- bioavailability [21]: 101%
- Papp [3]: 11 ×10⁻⁶ cm/s
